The NIST ThermoML archive (doi:10.1016/j.tca.2012.12.008)

Test: xn = mol fraction of the nth substance listed
Details: 101 kPa, Liquid; for viscosity: Capillary tube (Ostwald / Ubbelohde) method; for mass density: Vibrating tube method

CCCC(C)O (stereo not given) [pentan-2-ol] + CCC(C)=O
Details	mass density, 298.15 K [kg/m3]	mass density, 303.15 K [kg/m3]	mass density, 308.15 K [kg/m3]	mass density, 313.15 K [kg/m3]	viscosity, 298.15 K [mPa·s]	viscosity, 303.15 K [mPa·s]	viscosity, 308.15 K [mPa·s]	viscosity, 313.15 K [mPa·s]
x2 = 0	805.41	801.21	796.64	792.51	3.478	2.801	2.335	1.993
x2 = 0.0852	804.2	799.84	795.37	791.21	2.516	2.204	1.894	1.662
x2 = 0.1643	803.1	798.76	794.25	790.05	2.008	1.786	1.581	1.429
x2 = 0.2456	802.1	797.76	793.2	788.94	1.592	1.439	1.316	1.217
x2 = 0.3511	801	796.62	791.97	787.7	1.183	1.103	1.038	0.992
x2 = 0.4422	800.24	795.77	791.11	786.83	0.92	0.891	0.86	0.832
x2 = 0.5632	799.6	794.94	790.27	785.94	0.702	0.693	0.683	0.673
x2 = 0.6508	799.3	794.56	789.87	785.47	0.62	0.608	0.595	0.583
x2 = 0.7416	799.14	794.34	789.63	785.18	0.569	0.548	0.528	0.507
x2 = 0.8512	799.2	794.26	789.56	785.05	0.48	0.463	0.445	0.427
x2 = 0.941	799.31	794.39	789.76	785.17	0.428	0.407	0.385	0.364

CCC(C)=O [butanone] + CC(C)O
Details	mass density, 298.15 K [kg/m3]	mass density, 303.15 K [kg/m3]	mass density, 308.15 K [kg/m3]	mass density, 313.15 K [kg/m3]	viscosity, 298.15 K [mPa·s]	viscosity, 303.15 K [mPa·s]	viscosity, 308.15 K [mPa·s]	viscosity, 313.15 K [mPa·s]
x1 = 0.0819	782.25	777.85	772.94	768.48	1.657	1.503	1.371	1.245
x1 = 0.1607	783.38	778.97	774.09	769.53	1.358	1.286	1.208	1.139
x1 = 0.24	784.62	780.11	775.17	770.66	1.142	1.11	1.077	1.041
x1 = 0.349	786.42	781.79	776.85	772.33	0.939	0.924	0.909	0.895
x1 = 0.4405	788.05	783.31	778.38	773.86	0.818	0.807	0.795	0.784
x1 = 0.5593	790.28	785.48	780.55	776.07	0.702	0.686	0.669	0.654
x1 = 0.6511	792.07	787.24	782.38	777.9	0.626	0.607	0.587	0.569
x1 = 0.7392	793.87	789.03	784.21	779.74	0.551	0.539	0.527	0.515
x1 = 0.8496	796.19	791.36	786.58	782.16	0.465	0.456	0.448	0.44
x1 = 0.937	798.09	793.22	788.46	784.11	0.417	0.406	0.396	0.386
x1 = 1	799.48	794.63	789.9	785.52	0.381	0.368	0.352	0.339

CCCCCC(C)O (stereo not given) [2-heptanol] + CCC(C)=O
Details	mass density, 298.15 K [kg/m3]	mass density, 303.15 K [kg/m3]	mass density, 308.15 K [kg/m3]	mass density, 313.15 K [kg/m3]	viscosity, 298.15 K [mPa·s]	viscosity, 303.15 K [mPa·s]	viscosity, 308.15 K [mPa·s]	viscosity, 313.15 K [mPa·s]
x2 = 0	813.18	809.26	805.01	801.14	5.003	4.152	3.478	2.853
x2 = 0.0834	811.4	807.5	803.22	799.4	3.89	3.282	2.749	2.282
x2 = 0.1619	809.92	805.97	801.7	797.73	3.091	2.614	2.21	1.846
x2 = 0.2426	808.4	804.47	800.16	796.12	2.441	2.083	1.758	1.478
x2 = 0.3491	806.63	802.53	798.16	794.11	1.793	1.528	1.303	1.095
x2 = 0.4375	805.3	801.03	796.6	792.53	1.367	1.184	1.021	0.895
x2 = 0.5661	803.5	799.1	794.57	790.44	0.901	0.818	0.746	0.684
x2 = 0.6502	802.41	797.92	793.35	789.19	0.712	0.659	0.613	0.581
x2 = 0.7371	801.4	796.84	792.26	788.05	0.592	0.552	0.513	0.481
x2 = 0.8498	800.4	795.59	790.95	786.69	0.451	0.434	0.416	0.399
x2 = 0.9401	799.73	794.95	790.35	786	0.398	0.386	0.373	0.361

CCCCC(C)O (stereo not given) [2-hexanol] + CCC(C)=O
Details	mass density, 298.15 K [kg/m3]	mass density, 303.15 K [kg/m3]	mass density, 308.15 K [kg/m3]	mass density, 313.15 K [kg/m3]	viscosity, 298.15 K [mPa·s]	viscosity, 303.15 K [mPa·s]	viscosity, 308.15 K [mPa·s]	viscosity, 313.15 K [mPa·s]
x2 = 0	810.14	806.13	802.06	797.96	4.101	3.411	2.819	2.219
x2 = 0.0874	808.49	804.57	800.48	796.34	3.085	2.587	2.145	1.714
x2 = 0.1661	807.21	803.17	799.05	794.87	2.413	2.035	1.684	1.358
x2 = 0.2482	805.92	801.8	797.59	793.4	1.909	1.63	1.361	1.086
x2 = 0.355	804.36	800.03	795.83	791.6	1.454	1.232	1.027	0.826
x2 = 0.4463	803.2	798.8	794.5	790.25	1.178	0.998	0.831	0.692
x2 = 0.5671	801.84	797.36	792.94	788.71	0.889	0.775	0.678	0.592
x2 = 0.6534	801.04	796.47	792.02	787.75	0.718	0.647	0.587	0.536
x2 = 0.7422	800.4	795.74	791.22	786.94	0.603	0.564	0.525	0.487
x2 = 0.8547	799.91	795.09	790.45	786.14	0.505	0.479	0.449	0.419
x2 = 0.942	799.62	794.76	790.06	785.68	0.429	0.41	0.388	0.366

CCC(C)=O [butanone] + CCC(C)O
Details	mass density, 298.15 K [kg/m3]	mass density, 303.15 K [kg/m3]	mass density, 308.15 K [kg/m3]	mass density, 313.15 K [kg/m3]	viscosity, 298.15 K [mPa·s]	viscosity, 303.15 K [mPa·s]	viscosity, 308.15 K [mPa·s]	viscosity, 313.15 K [mPa·s]
x1 = 0.0833	801.7	797.1	792.46	788.12	2.502	2.135	1.832	1.525
x1 = 0.161	800.91	796.26	791.63	787.2	2.081	1.791	1.571	1.359
x1 = 0.2402	800.19	795.56	790.81	786.44	1.749	1.533	1.355	1.206
x1 = 0.3498	799.4	794.77	789.93	785.56	1.428	1.284	1.143	1.018
x1 = 0.441	798.92	794.27	789.42	785.03	1.213	1.078	0.976	0.895
x1 = 0.5609	798.55	793.86	789.01	784.61	0.981	0.886	0.82	0.76
x1 = 0.6498	798.44	793.74	788.83	784.44	0.824	0.768	0.706	0.664
x1 = 0.7398	798.47	793.74	788.83	784.43	0.671	0.638	0.603	0.572
x1 = 0.8501	798.73	793.92	789.09	784.68	0.528	0.506	0.486	0.465
x1 = 0.9405	799.06	794.23	789.47	785.05	0.434	0.417	0.397	0.38
x1 = 1	799.48	794.63	789.9	785.52	0.381	0.368	0.352	0.339
